Experiment [1] concerns the target T1, human DGKα (Homo sapiens, UniProt P23743).
T1 construct: TVMV protease cleavage site (C); Hexa-His (C); made in house; host or cells: Sf9 insect cells (baculovirus, Bac-to-Bac)
Kind of experiment: DGKα LIPGLO assay (extruded liposome substrate), in vitro DGK inhibition. As to conditions: read-out: DGKa LIPGLO IC50. The format is biochemical.

In experiment [2] the target is T2, human DGKζ (Homo sapiens, UniProt Q13574).
T2 construct: TVMV protease cleavage site (C); Hexa-His (C); made in house; host or cells: Sf9 insect cells (baculovirus, Bac-to-Bac)
Put plainly: DGKζ LIPGLO assay (extruded liposome substrate), in vitro DGK inhibition. The format is biochemical. As to conditions: read-out: DGKz LIPGLO IC50.

Experiment [3] concerns OT-1 CD8+ T cells with SIINFEKL-loaded MC38 tumor cells. Put plainly: Murine cytotoxic T lymphocyte assay (IFN-γ, OT-1 CTL with MC38 tumor cells). The experiment is classed as cell-based, mouse. As to conditions: read-out: msCTL INFg IC50. An excerpt:
5. Murine Cytotoxic T Lymphocyte Assay
An antigen-specific cytolytic T-cell (CTL) assay was developed to evaluate functionally the ability of DGKα and DGKζ inhibitors to enhance effector T cell mediated tumor cell killing activity. CD8+ T-cells isolated from the OT-1 transgenic mouse recognize antigen presenting cells, MC38, that present the ovalbumin derived peptide […]. Recognition of the cognate antigen initiates the cytolytic activity of the OT-1 antigen-specific CD8+ T cells.
Functional CTL cells were generated as follows: OT-1 splenocytes from 8-12 week old mice were isolated and expanded in the presence of the […] peptide at 1 μg/mL and mIL2 at 10 U/mL. After three days, fresh media with […] was added. On day 5 of the expansion, the CD8+ T cells were isolated and ready for use. Activated CTL cells may be stored frozen for 6 months. Separately, one million MC38 tumor cells were pulsed with 1 μg/mL of […]-OVA peptide for 3 hours at 37° C. The cells were washed (3×) with fresh media to remove excess peptide. Finally, CTL cells that were pretreated with DGK inhibitors for 1 hour in a 96-well U bottom plate were combined with the antigen loaded MC38 tumor cells at a 1:10 ratio. The cells were then spun at 700 rpm for 5 min and placed in an incubator overnight at 37° C. After 24 hours, the supernatant was collected for analysis of IFN-γ cytokine levels by AlphaLisa purchased from Perkin Elmer.

Experiment [4] concerns Human venous whole blood. Kind of experiment: Human whole blood IFN-γ assay.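 Note: blood from healthy donors exposed to compound for 1 h before stimulation with anti-CD3 and anti-CD28 at 1 µg/mL each, IFN-γ quantified in supernatant by AlphaLISA.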 The experiment is classed as cell-based.
Experimental: Human Whole Blood IFN-γ Assay
Human venous whole blood (22.5 μL per well), obtained from healthy donors, was pre-treated with compounds for one hour at 37° C. in a humidified 95% air/5% CO2 incubator. The blood was stimulated with 2.5 μL anti-human CD3 and anti-CD28 mAb at a final concentration of 1 μg/mL each for 24 hours at 37° C. IFN-γ in the supernatants was measured using AlphLISA kit (Cat # AL217).
[5] abbreviates: Homo sapiens, 24 h, human whole blood, normalized to 3 μM reference compound with anti-CD3 plus anti-CD28 as 100% activation, read-out: INFg Whole Blood Normalized Agonist EC50.
Where [6] appears, read: human whole blood, normalized to 3 μM reference compound with anti-CD3 plus anti-CD28 as 100% activation, read-out: INFg Whole Blood Normalized Agonist EC50.

Consider 17 molecules from patent US10669272B2, “Substituted naphthyridinone compounds useful as T cell activators” (BRISTOL-MYERS SQUIBB COMPANY, priority 2018, dated 2020).

Molecules are shown by their SMILES. Counter-ions that a name gives are not always drawn. Like-named read-outs stand apart in the source and are kept apart here.

T2 sequence (Q13574 with tags, fused parts or gaps isoform Q13574-4): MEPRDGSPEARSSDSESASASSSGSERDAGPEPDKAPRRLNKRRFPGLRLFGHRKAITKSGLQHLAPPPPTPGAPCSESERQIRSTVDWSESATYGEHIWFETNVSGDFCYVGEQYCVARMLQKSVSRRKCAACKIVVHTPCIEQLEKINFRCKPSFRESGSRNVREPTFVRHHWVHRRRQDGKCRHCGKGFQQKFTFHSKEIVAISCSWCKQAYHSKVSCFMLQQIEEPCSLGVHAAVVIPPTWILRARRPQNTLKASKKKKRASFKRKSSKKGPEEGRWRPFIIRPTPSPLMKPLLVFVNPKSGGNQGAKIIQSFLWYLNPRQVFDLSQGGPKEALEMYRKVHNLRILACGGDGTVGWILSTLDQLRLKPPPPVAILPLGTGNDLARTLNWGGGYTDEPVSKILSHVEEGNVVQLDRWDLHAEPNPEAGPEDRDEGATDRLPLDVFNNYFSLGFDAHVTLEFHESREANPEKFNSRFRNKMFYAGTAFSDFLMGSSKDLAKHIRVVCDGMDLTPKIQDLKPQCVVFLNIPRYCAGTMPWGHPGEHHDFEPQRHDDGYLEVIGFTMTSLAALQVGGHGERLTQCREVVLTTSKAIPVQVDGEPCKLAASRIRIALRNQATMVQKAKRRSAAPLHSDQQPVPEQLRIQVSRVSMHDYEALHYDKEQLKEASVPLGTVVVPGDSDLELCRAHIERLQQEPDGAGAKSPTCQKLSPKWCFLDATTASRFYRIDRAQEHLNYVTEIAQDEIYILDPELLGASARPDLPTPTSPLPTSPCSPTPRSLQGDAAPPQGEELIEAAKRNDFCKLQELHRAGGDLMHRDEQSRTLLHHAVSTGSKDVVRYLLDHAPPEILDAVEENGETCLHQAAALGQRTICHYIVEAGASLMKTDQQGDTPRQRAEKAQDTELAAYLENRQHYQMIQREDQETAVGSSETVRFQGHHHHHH
T1 sequence (P23743 with tags, fused parts or gaps): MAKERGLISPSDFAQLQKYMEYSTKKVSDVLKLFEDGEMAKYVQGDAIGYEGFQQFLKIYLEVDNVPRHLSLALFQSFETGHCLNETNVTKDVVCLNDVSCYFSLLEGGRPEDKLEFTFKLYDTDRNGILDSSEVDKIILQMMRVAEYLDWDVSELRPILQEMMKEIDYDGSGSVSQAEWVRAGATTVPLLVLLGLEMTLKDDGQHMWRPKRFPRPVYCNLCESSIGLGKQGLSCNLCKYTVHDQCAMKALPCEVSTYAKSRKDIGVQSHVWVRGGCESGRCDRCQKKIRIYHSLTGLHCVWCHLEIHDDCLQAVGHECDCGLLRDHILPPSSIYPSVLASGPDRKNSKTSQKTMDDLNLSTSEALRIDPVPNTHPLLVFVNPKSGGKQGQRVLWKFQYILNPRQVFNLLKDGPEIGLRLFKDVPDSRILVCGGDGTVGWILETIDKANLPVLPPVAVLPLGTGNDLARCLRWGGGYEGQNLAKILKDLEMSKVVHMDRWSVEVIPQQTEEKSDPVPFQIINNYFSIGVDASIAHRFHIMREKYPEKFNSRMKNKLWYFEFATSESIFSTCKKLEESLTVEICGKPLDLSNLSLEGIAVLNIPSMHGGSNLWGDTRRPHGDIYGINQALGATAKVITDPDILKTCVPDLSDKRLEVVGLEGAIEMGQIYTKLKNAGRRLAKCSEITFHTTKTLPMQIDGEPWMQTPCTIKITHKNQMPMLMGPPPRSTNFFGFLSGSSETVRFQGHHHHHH

As to `CC(C)C(C)(F)C1CN(c2cc(=O)n(C)c3ccc(C#N)nc23)CCN1C(c1ccc(F)cc1)c1ccc(F)cc1` (single isomer, unassigned) [Example 90, 8-(4-(bis(4-fluorophenyl)methyl)-3-(2-fluoro-3-methylbutan-2-yl)piperazin-1-yl)-5-methyl-6-oxo-5,6-dihydro-1,5-naphthyridine-2-carbonitrile, TFA], the IC50 was 240 µM in experiment [1] (liposome (LIPGLO) assay); 240 µM in experiment [2] (liposome (LIPGLO) assay); 4.8 µM in experiment [3] (Mus musculus, MC-38). Moreover, in experiment [4] (setting [5]), the EC50 turned out to be 20 µM.
In the case of `Cn1c(=O)cc(N2CCN(C(c3ccc(F)cc3)c3ccc(F)cc3)CC2C2CC2)c2nc(C#N)ccc21` (single isomer, unassigned) [Example 24, 8-(4-(bis(4-fluorophenyl)methyl)-2-cyclopropylpiperazin-1-yl)-5-methyl-6-oxo-5,6-dihydro-1,5-naphthyridine-2-carbonitrile], the IC50 in experiment [1] (liposome (LIPGLO) assay) turned out to be 1.5 µM; in experiment [2] (liposome (LIPGLO) assay), 3.9 µM; in experiment [3] it was 0.2 µM. Moreover, the EC50 in experiment [4] (setting [6]) came to 13 µM.
`CC[C@H]1CN(C(c2ccc(F)cc2)c2ccc(F)cc2)CCN1c1cc(=O)n(C)c2ccc(C#N)nc12` [Example 127, (S)-8-(4-(bis(4-fluorophenyl)methyl)-2-ethylpiperazin-1-yl)-5-methyl-6-oxo-5,6-dihydro-1,5-naphthyridine-2-carbonitrile]: in experiment [3] (Mus musculus, MC-38), the IC50 is 0.36 µM. In addition, the EC50 in experiment [4] (Homo sapiens, 24 h, read-out: INFg Whole Blood Normalized Agonist EC50, human whole blood, normalized to 3 μM reference compound with anti-CD3 plus anti-CD28 as 100% activation) was determined as 4.3 µM.
On to `CC1C(C)N(C(c2ccc(F)cc2)c2ccc(F)cc2)CCN1c1cc(=O)n(C)c2ccc(C#N)nc12` (single isomer, unassigned) [Example 123, 8-(4-(bis(4-fluorophenyl)methyl)-2,3-dimethylpiperazin-1-yl)-5-methyl-6-oxo-5,6-dihydro-1,5-naphthyridine-2-carbonitrile], for which the IC50 stood at 2.4 µM in experiment [1] (liposome (LIPGLO) assay), 240 µM in experiment [2] (liposome (LIPGLO) assay) and 2.4 µM in experiment [3]. Besides, the concentration for a half-maximal effect (EC50) in experiment [4] (setting [6]) turned out to be 35 µM.
Turning to `Cc1nnc(C2CN(c3cc(=O)n(C)c4ccc(C#N)nc34)CCN2C(c2ccc(F)cc2)c2ccc(F)cc2)o1` (stereo not drawn) [Example 126, 8-(4-(bis(4-fluorophenyl)methyl)-3-(5-methyl-1,3,4-oxadiazol-2-yl)piperazin-1-yl)-5-methyl-6-oxo-5,6-dihydro-1,5-naphthyridine-2-carbonitrile], the IC50 in experiment [1] (liposome (LIPGLO) assay) worked out at 230 µM; in experiment [2] (liposome (LIPGLO) assay), 31 µM; in experiment [3] (Mus musculus, MC-38), 10 µM. In addition, the EC50 in experiment [4] (setting [5]) is 20 µM.
`Cn1c(=O)cc(N2CCN(C(c3ccc(F)cc3)c3ccc(F)cc3)CC2c2ccccc2)c2nc(C#N)ccc21` (single isomer, unassigned) [Example 156, 8-(4-(bis(4-fluorophenyl)methyl)-2-phenylpiperazin-1-yl)-5-methyl-6-oxo-5,6-dihydro-1,5-naphthyridine-2-carbonitrile]: the IC50 in experiment [1] (liposome (LIPGLO) assay) worked out at 8.5 µM; in experiment [2] (liposome (LIPGLO) assay), 9.8 µM; in experiment [3], 0.4 µM. In addition, in experiment [4] (setting [6]), the EC50 was 6.9 µM.
For `COc1cc(F)ccc1C(c1ccc(F)cc1)N1CCN(c2cc(=O)n(C)c3ccc(C#N)nc23)[C@@H](C)C1` (single isomer, unassigned) [Example 130], in that order: 18 µM, 0.96 µM, 0.75 µM and 4 µM.
For the molecule `C[C@@H]1CN(c2c(C#N)c(=O)n(C)c3ccc(C#N)nc23)CCN1Cc1c(F)cc(F)cc1F` [Example 986], the IC50 in experiment [1] (DGKα liposome (LIPGLO) assay) turned out to be 4.2 µM; in experiment [2] (DGKζ liposome (LIPGLO) assay), 2.6 µM; in experiment [3] (Mus musculus, MC-38, murine CTL, IFN-γ) it was 3.7 µM. The EC50 in experiment [4] (Homo sapiens, 24 h, human whole blood, anti-CD3 plus anti-CD28, 24 hours, 3 μM reference compound = 100% activation, read-out: INFg Whole Blood Normalized Agonist EC50) amounted to 20 µM.
On to `C[C@@H]1CN(c2c(Cl)c(=O)n(C)c3ccc(C#N)nc23)CCN1C(c1ccc(Cl)cc1)c1ccc(Cl)cc1` [Example 105, (R)-8-(4-(bis(4-chlorophenyl)methyl)-3-methylpiperazin-1-yl)-7-chloro-5-methyl-6-oxo-5,6-dihydro-1,5-naphthyridine-2-carbonitrile, dimethylformamide], for which the half-inhibitory concentration (IC50) in experiment [1] (liposome (LIPGLO) assay) came to 1.4 µM; in experiment [2] (liposome (LIPGLO) assay) it was 0.82 µM; in experiment [3] (Mus musculus, MC-38) it was 0.074 µM. Also, the EC50 in experiment [4] (setting [5]) stood at 4.3 µM.
As to `COc1cc(F)ccc1C(c1ccc(F)cc1)N1CCN(c2cc(=O)n(C)c3ccc(C#N)nc23)[C@@H](C)C1` (single isomer, unassigned) [Example 129], the IC50 was 12 µM in experiment [1] (liposome (LIPGLO) assay); 0.82 µM in experiment [2] (liposome (LIPGLO) assay); 0.71 µM in experiment [3] (Mus musculus, MC-38). The EC50 in experiment [4] (setting [5]) was determined as 5.4 µM.
On to `COC(=O)C1CN(c2c([N+](=O)[O-])c(=O)n(C)c3ccc(C#N)nc23)CCN1C(c1ccc(F)cc1)c1ccc(F)cc1` (single isomer, unassigned) [Example 73, Methyl 1-(bis(4-fluorophenyl)methyl)-4-(6-cyano-1-methyl-3-nitro-2-oxo-1,2-dihydro-1,5-naphthyridin-4-yl)piperazine-2-carboxylate], for which the IC50 in experiment [1] (liposome (LIPGLO) assay) came out at 0.52 µM; in experiment [2] (liposome (LIPGLO) assay), 0.31 µM; in experiment [3] (Mus musculus, MC-38), 0.15 µM. The EC50 in experiment [4] (setting [5]) turned out to be 0.29 µM.
As to `COC(=O)C1CN(c2c(F)c(=O)n(C)c3ccc(C#N)nc23)CCN1C(c1ccc(F)cc1)c1ccc(F)cc1` (single isomer, unassigned) [Example 75, Methyl 1-(bis(4-fluorophenyl)methyl)-4-(6-cyano-3-fluoro-1-methyl-2-oxo-1,2-dihydro-1,5-naphthyridin-4-yl)piperazine-2-carboxylate], the IC50 turned out to be 0.99 µM in experiment [1] (liposome (LIPGLO) assay), 0.4 µM in experiment [2] (liposome (LIPGLO) assay) and 0.023 µM in experiment [3].
Take `Cn1c(=O)cc(N2CCN(C(c3ccc(F)cc3)c3ccc(F)cc3)CC2C#N)c2nc(C#N)ccc21` (single isomer, unassigned) [Example 143, 8-(4-(bis(4-fluorophenyl)methyl)-2-cyanopiperazin-1-yl)-5-methyl-6-oxo-5,6-dihydro-1,5-naphthyridine-2-carbonitrile]: the IC50 amounted to 5.4 µM in experiment [1] (liposome (LIPGLO) assay); 6.4 µM in experiment [2] (liposome (LIPGLO) assay); 0.33 µM in experiment [3] (Mus musculus, MC-38). Also, in experiment [4] (setting [5]), the EC50 was 5.7 µM.
For the molecule `CC(C)C(C)(O)C1CN(c2cc(=O)n(C)c3ccc(C#N)nc23)CCN1C(c1ccc(F)cc1)c1ccc(F)cc1` (single isomer, unassigned) [Example 89, 8-(4-(bis(4-fluorophenyl)methyl)-3-(2-hydroxy-3-methylbutan-2-yl)piperazin-1-yl)-5-methyl-6-oxo-5,6-dihydro-1,5-naphthyridine-2-carbonitrile], the figures for the IC50 in experiment [1] (liposome (LIPGLO) assay), in experiment [2] (liposome (LIPGLO) assay) and in experiment [3] were 240 µM, 77 µM and 2.6 µM, respectively. Also, the EC50 in experiment [4] (setting [6]) is 20 µM.
For the molecule `Cn1c(=O)cc(N2CCN(C(c3ccc(F)cc3)c3ccc(F)cc3)CC2C2CC2)c2nc(C#N)ccc21` (single isomer, unassigned) [Example 23, 8-(4-(bis(4-fluorophenyl)methyl)-2-cyclopropylpiperazin-1-yl)-5-methyl-6-oxo-5,6-dihydro-1,5-naphthyridine-2-carbonitrile], the results for the IC50 in experiment [1] (liposome (LIPGLO) assay), in experiment [2] (liposome (LIPGLO) assay) and in experiment [3] were 240 µM, 100 µM and 1.4 µM, respectively. In addition, the EC50 in experiment [4] (setting [5]) stood at 10 µM.
In the case of `Cc1ccc(C(C)N2CCN(c3c(C#N)c(=O)n(C)c4ccc(C#N)nc34)C[C@H]2C)cc1` (single isomer, unassigned) [Example 953], the IC50 in experiment [1] (DGKα liposome (LIPGLO) assay) is 1.1 µM; in experiment [2] (DGKζ liposome (LIPGLO) assay), 15 µM; in experiment [3] (murine CTL, IFN-γ), 1.7 µM.
On to `CC(C)C(=O)C1CN(c2cc(=O)n(C)c3ccc(C#N)nc23)CCN1C(c1ccc(F)cc1)c1ccc(F)cc1` (single isomer, unassigned) [Example 87, 8-(4-(bis(4-fluorophenyl)methyl)-3-isobutyrylpiperazin-1-yl)-5-methyl-6-oxo-5,6-dihydro-1,5-naphthyridine-2-carbonitrile], for which the results for the IC50 in experiment [1] (liposome (LIPGLO) assay), in experiment [2] (liposome (LIPGLO) assay) and in experiment [3] were 28 µM, 6.6 µM and 0.45 µM, respectively.
